The text below walks through data of patent US20100317647A1 (priority 2009, published 2010).

human Cat S, sequence (P25774 115-331): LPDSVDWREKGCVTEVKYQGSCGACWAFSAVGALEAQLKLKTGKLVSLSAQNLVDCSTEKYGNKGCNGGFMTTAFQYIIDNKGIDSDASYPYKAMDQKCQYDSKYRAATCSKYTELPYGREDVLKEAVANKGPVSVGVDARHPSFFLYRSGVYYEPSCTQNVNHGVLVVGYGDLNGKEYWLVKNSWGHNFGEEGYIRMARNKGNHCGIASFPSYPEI

This test addresses human Cat S (Homo sapiens, UniProt P25774). Description: Cathepsin enzyme inhibition assay (fluorogenic peptide substrate cleavage). As to conditions: human Cat S 1 nM; substrate Z-Val-Val-Arg-AMC 20 μM; pH 6.5; fluorescence over 20 minutes. In kind it is biochemical. Put shortly:
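IC50 values derived from fluorescence increase (ex 360 nm, em 465 nm) monitored for 20 minutes after substrate addition. Enzyme held at 1 nM with 20 μM Z-Val-Val-Arg-AMC, in pH 6.5 potassium phosphate buffer containing DTT, EDTA and Triton X-100.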
The compound `N#CC1(NC(=O)[C@@H]2C[C@@H](S(=O)(=O)c3ccc(N4CC(F)(F)C4)cc3Cl)C[C@H]2C(=O)N2CC(F)(F)C2)CC1` [Example 136, (1R,2R,4R)-4-[2-Chloro-4-(3,3-difluoro-azetidin-1-yl)-benzenesulfonyl]-2-(3,3-difluoro-azetidine-1-carbonyl)-cyclopentanecarboxylic acid (1-cyano-cyclopropyl)-amide] yielded an IC50 of 1.3 nM. Compound `CO[C@@H]1C[C@H](S(=O)(=O)c2ccc(-c3cnn(C)c3)cc2C(F)(F)F)C[C@H]1C(=O)NC1(C#N)CC1` [Example 138, (1R,2R,4R)-2-Methoxy-4-[4-(1-methyl-1H-pyrazol-4-yl)-2-trifluoromethyl-benzenesulfonyl]-cyclopentanecarboxylic acid (1-cyano-cyclopropyl)-amide] yielded an IC50 of 0.4 nM. `CO[C@@H]1C[C@H](S(=O)(=O)c2ccc(-c3ccnc(C)c3)cc2C(F)(F)F)C[C@H]1C(=O)NC1(C#N)CC1` [Example 139, (1R,2R,4R)-2-Methoxy-4-[4-(2-methyl-pyridin-4-yl)-2-trifluoromethyl-benzenesulfonyl]-cyclopentanecarboxylic acid (1-cyano-cyclopropyl)-amide] showed an IC50 of 0.3 nM. `CCN1CCN(c2ccc(S(=O)(=O)[C@H]3C[C@@H](COc4ccc(F)cc4)[C@H](C(=O)NCC#N)C3)c(Cl)c2)CC1` [Example 147, (1R,2R,4S)-4-[2-Chloro-4-(4-ethyl-piperazin-1-yl)-benzenesulfonyl]-2-(4-fluoro-phenoxymethyl)-cyclopentanecarboxylic acid cyanomethyl-amide] had an IC50 of 0.227 nM. `N#CC1(NC(=O)[C@@H]2C[C@H](S(=O)(=O)c3ccccc3Cl)C[C@H]2CN2CCC(c3ccc(F)cc3)CC2)CC1` [Example 148, (1R,2R,4R)-4-(2-Chloro-benzenesulfonyl)-2-[4-(4-fluoro-phenyl)-piperidin-1-ylmethyl]-cyclopentanecarboxylic acid (1-cyano-cyclopropyl)-amide]: the IC50 turned out to be 515 nM. As to `N#CC1(NC(=O)[C@@H]2C[C@@H](S(=O)(=O)c3ccc(Br)cc3C(F)(F)F)C[C@H]2COC=O)CC1` [Example 152, Formic acid (1R,2R,4S)-4-(4-bromo-2-trifluoromethyl-benzenesulfonyl)-2-(1-cyano-cyclopropylcarbamoyl)-cyclopentylmethyl ester], the IC50 is 4.2 nM. Consider `COc1ccc(COC[C@@H]2C[C@H](S(=O)(=O)c3ccc(F)cc3Cl)C[C@H]2C(=O)NC2(C#N)CC2)cc1` [Example 153, (1R,2R,4S)-4-(2-Chloro-4-fluoro-benzenesulfonyl)-2-(4-methoxy-benzyloxymethyl)-cyclopentanecarboxylic acid (1-cyano-cyclopropyl)-amide], for which the IC50 was found to be 25.5 nM. To `N#CC1(NC(=O)[C@@H]2C[C@@H](S(=O)(=O)c3ccc(F)cc3Cl)C[C@H]2CO)CC1` [Example 155, (1R,2R,4S)-4-(2-Chloro-4-fluoro-benzenesulfonyl)-2-hydroxymethyl-cyclopentanecarboxylic acid (1-cyano-cyclopropyl)-amide] belongs 107 nM; to `CC(C)OC[C@@H]1C[C@H](S(=O)(=O)c2ccc(F)cc2Cl)C[C@H]1C(=O)NC1(C#N)CC1` [Example 156, (1R,2R,4S)-4-(2-Chloro-4-fluoro-benzenesulfonyl)-2-isopropoxymethyl-cyclopentanecarboxylic acid (1-cyano-cyclopropyl)-amide], 31.5 nM. `N#CC1(NC(=O)[C@@H]2C[C@@H](S(=O)(=O)c3ccc(F)cc3Cl)C[C@H]2CF)CC1` [Example 157, (1R,2R,4R)-4-(2-Chloro-4-fluoro-benzenesulfonyl)-2-fluoromethyl-cyclopentanecarboxylic acid (1-cyano-cyclopropyl)-amide] registered an IC50 of 61.5 nM. `CN1CCN(c2ccc(S(=O)(=O)[C@@H]3C[C@@H](C(=O)NC4(C#N)CC4)[C@H](C(=O)N4CC(F)(F)C4)C3)c(Cl)c2)CC1` [Example 158, (1R,2R,4R)-4-[2-Chloro-4-(4-methyl-piperazin-1-yl)-benzenesulfonyl]-2-(3,3-difluoro-azetidine-1-carbonyl)-cyclopentanecarboxylic acid (1-cyano-cyclopropyl)-amide] displayed an IC50 of 0.63 nM. Consider `N#CC1(NC(=O)[C@@H]2C[C@@H](S(=O)(=O)c3ccc(N4CCN(C5CC5)CC4)cc3Cl)C[C@H]2C(=O)N2CC(F)(F)C2)CC1` [Example 159, (1R,2R,4R)-4-[2-Chloro-4-(4-cyclopropyl-piperazin-1-yl)-benzenesulfonyl]-2-(3,3-difluoro-azetidine-1-carbonyl)-cyclopentanecarboxylic acid (1-cyano-cyclopropyl)-amide], for which the IC50 was found to be 0.385 nM. In turn, `CC(C)(C)N1CCN(c2ccc(S(=O)(=O)[C@@H]3C[C@@H](C(=O)NC4(C#N)CC4)[C@H](C(=O)N4CC(F)(F)C4)C3)c(Cl)c2)CC1` [Example 160, (1R,2R,4R)-4-[4-(4-tert-Butyl-piperazin-1-yl)-2-chloro-benzenesulfonyl]-2-(3,3-difluoro-azetidine-1-carbonyl)-cyclopentanecarboxylic acid (1-cyano-cyclopropyl)-amide] showed an IC50 of 0.165 nM.

With `N#CC1(NC(=O)[C@@H]2C[C@@H](S(=O)(=O)c3ccc(F)cc3Cl)C[C@H]2COc2ccc(Cl)nc2)CC1` [Example 162, (1R,2R,4S)-4-(2-Chloro-4-fluoro-benzenesulfonyl)-2-(6-chloro-pyridin-3-yloxymethyl)-cyclopentanecarboxylic acid (1-cyano-cyclopropyl)-amide], 14.7 nM corresponded to half-maximal inhibition (IC50). To `N#CC1(NC(=O)[C@@H]2C[C@@H](S(=O)(=O)c3ccc(F)cc3Cl)C[C@H]2COc2ccncc2)CC1` [Example 163, (1R,2R,4S)-4-(2-Chloro-4-fluoro-benzenesulfonyl)-2-(pyridin-4-yloxymethyl)-cyclopentanecarboxylic acid (1-cyano-cyclopropyl)-amide] belongs 11.1 nM; to `N#CC1(NC(=O)[C@@H]2C[C@@H](S(=O)(=O)c3ccc(F)cc3Cl)C[C@H]2COc2ccccc2)CC1` [Example 164, (1R,2R,4S)-4-(2-Chloro-4-fluoro-benzenesulfonyl)-2-phenoxymethyl-cyclopentanecarboxylic acid (1-cyano-cyclopropyl)-amide], 3 nM; to `N#CC1(NC(=O)[C@@H]2C[C@@H](S(=O)(=O)c3ccc(F)cc3Cl)C[C@H]2COc2cccnc2)CC1` [Example 165, (1R,2R,4S)-4-(2-Chloro-4-fluoro-benzenesulfonyl)-2-(pyridin-3-yloxymethyl)-cyclopentanecarboxylic acid (1-cyano-cyclopropyl)-amide], 6.83 nM.

`CC(=O)N1CCN(c2ccc(S(=O)(=O)[C@@H]3C[C@@H](C(=O)NC4(C#N)CC4)[C@H](C(=O)N4CC(F)(F)C4)C3)c(Cl)c2)CC1` [Example 166, (1R,2R,4R)-4-[4-(4-Acetyl-piperazin-1-yl)-2-chloro-benzenesulfonyl]-2-(3,3-difluoro-azetidine-1-carbonyl)-cyclopentanecarboxylic acid (1-cyano-cyclopropyl)-amide] had an IC50 of 0.6 nM.

On to `N#CC1(NC(=O)[C@@H]2C[C@@H](S(=O)(=O)c3ccc(-n4cccn4)cc3Cl)C[C@H]2C(=O)N2CC(F)(F)C2)CC1` [Example 167, (1R,2R,4R)-4-(2-Chloro-4-pyrazol-1-yl-benzenesulfonyl)-2-(3,3-difluoro-azetidine-1-carbonyl)-cyclopentanecarboxylic acid (1-cyano-cyclopropyl)-amide], for which half-maximal inhibition (IC50) was put at 1.47 nM. Turning to `COCCOc1ccc(S(=O)(=O)[C@@H]2C[C@@H](C(=O)NC3(C#N)CC3)[C@H](C(=O)N3CC(F)(F)C3)C2)c(Cl)c1` [Example 168, (1R,2R,4R)-4-[2-Chloro-4-(2-methoxy-ethoxy)-benzenesulfonyl]-2-(3,3-difluoro-azetidine-1-carbonyl)-cyclopentanecarboxylic acid (1-cyano-cyclopropyl)-amide], it took 1.27 nM to reach half-maximal inhibition (IC50). To `N#CC1(NC(=O)[C@@H]2C[C@@H](S(=O)(=O)c3ccc(F)cc3Cl)C[C@H]2C(=O)N2CCC(F)(F)C2)CC1` [Example 186, (1R,2R,4R)-4-(2-Chloro-4-fluoro-benzenesulfonyl)-2-(3,3-difluoro-pyrrolidine-1-carbonyl)-cyclopentanecarboxylic acid (1-cyano-cyclopropyl)-amide] belongs 2.15 nM; to `N#CC1(NC(=O)[C@@H]2C[C@@H](S(=O)(=O)c3ccc(Br)cc3Cl)C[C@H]2C(=O)N2CCC(F)(F)C2)CC1` [Example 187, (1R,2R,4R)-4-(4-Bromo-2-chloro-benzenesulfonyl)-2-(3,3-difluoro-pyrrolidine-1-carbonyl)-cyclopentanecarboxylic acid (1-cyano-cyclopropyl)-amide], 1.07 nM; to `N#CC1(NC(=O)[C@@H]2C[C@@H](S(=O)(=O)c3cccc(Br)c3)C[C@H]2C(=O)N2CCC(F)(F)C2)CC1` [Example 188, (1R,2R,4R)-4-(3-Bromo-benzenesulfonyl)-2-(3,3-difluoro-pyrrolidine-1-carbonyl)-cyclopentanecarboxylic acid (1-cyano-cyclopropyl)-amide], 0.985 nM.

`N#CC1(NC(=O)[C@@H]2C[C@@H](S(=O)(=O)c3ccc(OCC(F)(F)F)cc3Cl)C[C@H]2C(=O)N2CCC(F)(F)C2)CC1` [Example 189, (1R,2R,4R)-4-[2-Chloro-4-(2,2,2-trifluoro-ethoxy)-benzenesulfonyl]-2-(3,3-difluoro-pyrrolidine-1-carbonyl)-cyclopentanecarboxylic acid (1-cyano-cyclopropyl)-amide] registered an IC50 of 0.675 nM.

The compound `C[C@H](Oc1ccc(S(=O)(=O)[C@@H]2C[C@@H](C(=O)NC3(C#N)CC3)[C@H](C(=O)N3CCC(F)(F)C3)C2)c(Cl)c1)C(F)(F)F` [Example 190, (1R,2R,4R)-4-[2-Chloro-4-((S)-2,2,2-trifluoro-1-methyl-ethoxy)-benzenesulfonyl]-2-(3,3-difluoro-pyrrolidine-1-carbonyl)-cyclopentanecarboxylic acid (1-cyano-cyclopropyl)-amide] gave an IC50 of 0.84 nM.
